According to ChEMBL document CHEMBL3132769, “Fragment growing to retain or alter the selectivity of anchored kinase hinge-binding fragments” (Medchemcomm, 2014):

Legend:
[1] = biological target: Calcium/calmodulin-dependent protein kinase type II subunit beta (Homo sapiens) (UniProt Q13554); assay: Inhibition of human CAMK2 beta catalytic domain expressed in baculovirus assessed as substrate phosphorylation using fluorescence-labelled peptides as substrate at 0.06 uM after 90 mins by microfluidic peptide phosphorylation assay
Sequence of Calcium/calmodulin-dependent protein kinase type II subunit beta (Homo sapiens) (Q13554 whole entry, the tested form may be a part): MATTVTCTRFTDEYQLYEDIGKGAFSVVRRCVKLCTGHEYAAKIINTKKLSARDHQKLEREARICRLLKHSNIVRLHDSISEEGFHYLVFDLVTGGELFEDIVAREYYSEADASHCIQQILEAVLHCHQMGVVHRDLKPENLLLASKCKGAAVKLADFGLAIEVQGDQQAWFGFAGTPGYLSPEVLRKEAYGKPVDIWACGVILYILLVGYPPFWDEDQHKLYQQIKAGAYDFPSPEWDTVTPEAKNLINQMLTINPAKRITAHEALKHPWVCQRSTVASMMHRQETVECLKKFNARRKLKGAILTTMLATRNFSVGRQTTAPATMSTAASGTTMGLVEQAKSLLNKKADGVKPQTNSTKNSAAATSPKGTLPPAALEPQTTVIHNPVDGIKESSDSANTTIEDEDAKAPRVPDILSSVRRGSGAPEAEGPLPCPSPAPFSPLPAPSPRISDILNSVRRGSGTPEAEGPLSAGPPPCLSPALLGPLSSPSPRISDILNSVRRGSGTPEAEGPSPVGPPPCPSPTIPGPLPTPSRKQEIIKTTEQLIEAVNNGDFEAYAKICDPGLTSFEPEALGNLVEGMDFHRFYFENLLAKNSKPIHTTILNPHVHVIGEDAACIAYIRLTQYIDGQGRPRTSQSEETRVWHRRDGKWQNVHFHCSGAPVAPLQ

[2] = biological target: T1, Serine/threonine-protein kinase Sgk3 (Homo sapiens) (UniProt Q96BR1); assay: Inhibition of human full length SGK3 expressed in baculovirus assessed as substrate phosphorylation using fluorescence-labelled peptides as substrate at […] after 90 mins by microfluidic peptide phosphorylation assay
T1 sequence (whole entry): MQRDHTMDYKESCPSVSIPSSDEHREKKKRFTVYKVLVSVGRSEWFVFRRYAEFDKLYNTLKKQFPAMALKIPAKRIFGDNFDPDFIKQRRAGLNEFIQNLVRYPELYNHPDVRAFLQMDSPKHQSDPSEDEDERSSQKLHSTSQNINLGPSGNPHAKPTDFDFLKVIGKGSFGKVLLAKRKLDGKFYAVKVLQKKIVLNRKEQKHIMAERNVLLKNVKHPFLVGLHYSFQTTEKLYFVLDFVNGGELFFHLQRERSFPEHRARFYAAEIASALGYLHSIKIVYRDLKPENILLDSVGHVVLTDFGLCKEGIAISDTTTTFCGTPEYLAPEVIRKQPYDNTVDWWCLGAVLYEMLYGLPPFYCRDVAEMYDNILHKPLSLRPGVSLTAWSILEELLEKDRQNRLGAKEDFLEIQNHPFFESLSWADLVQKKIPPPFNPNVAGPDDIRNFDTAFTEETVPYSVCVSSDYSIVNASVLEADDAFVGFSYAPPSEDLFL

[3] = biological target: Proto-oncogene tyrosine-protein kinase Src (Homo sapiens) (UniProt P12931); assay: Inhibition of human full length SRC expressed in baculovirus assessed as substrate phosphorylation using fluorescence-labelled peptides as substrate at […] after 90 mins by microfluidic peptide phosphorylation assay
Sequence of Proto-oncogene tyrosine-protein kinase Src (Homo sapiens) (P12931 2-536 limits assumed): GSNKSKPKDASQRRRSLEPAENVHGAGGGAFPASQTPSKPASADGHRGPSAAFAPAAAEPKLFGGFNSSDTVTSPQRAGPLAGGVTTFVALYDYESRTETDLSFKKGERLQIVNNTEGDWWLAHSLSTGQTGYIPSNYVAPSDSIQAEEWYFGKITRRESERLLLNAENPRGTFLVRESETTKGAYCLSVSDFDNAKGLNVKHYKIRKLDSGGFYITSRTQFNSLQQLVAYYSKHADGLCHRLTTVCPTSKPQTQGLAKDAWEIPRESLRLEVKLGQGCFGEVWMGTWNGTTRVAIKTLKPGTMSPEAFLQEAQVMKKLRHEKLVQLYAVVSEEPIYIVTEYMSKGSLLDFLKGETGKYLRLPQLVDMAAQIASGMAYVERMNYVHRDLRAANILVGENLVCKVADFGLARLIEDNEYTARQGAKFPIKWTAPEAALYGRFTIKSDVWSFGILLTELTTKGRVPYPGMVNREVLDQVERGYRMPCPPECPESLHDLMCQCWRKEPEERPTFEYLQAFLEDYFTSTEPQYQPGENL

[4] = biological target: Serine/threonine-protein kinase PAK 2 (Homo sapiens) (UniProt Q13177); details: 0.1 uM
Sequence of Serine/threonine-protein kinase PAK 2 (Homo sapiens) (Q13177 whole entry, the tested form may be a part): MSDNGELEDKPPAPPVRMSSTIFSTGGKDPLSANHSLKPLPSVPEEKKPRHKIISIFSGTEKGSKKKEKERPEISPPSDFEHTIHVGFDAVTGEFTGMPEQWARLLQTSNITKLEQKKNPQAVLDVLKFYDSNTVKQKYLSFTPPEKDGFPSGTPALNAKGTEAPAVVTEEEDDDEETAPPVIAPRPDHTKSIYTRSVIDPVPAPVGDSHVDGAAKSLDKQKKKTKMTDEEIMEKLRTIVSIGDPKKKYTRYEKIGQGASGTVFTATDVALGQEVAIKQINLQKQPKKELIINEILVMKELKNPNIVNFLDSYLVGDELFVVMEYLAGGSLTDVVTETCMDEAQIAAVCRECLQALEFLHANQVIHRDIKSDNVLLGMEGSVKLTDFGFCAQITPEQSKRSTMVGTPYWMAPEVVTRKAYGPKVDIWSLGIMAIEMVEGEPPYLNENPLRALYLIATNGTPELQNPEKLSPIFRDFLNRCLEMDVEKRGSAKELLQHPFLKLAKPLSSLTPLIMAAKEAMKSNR
Description: Inhibition of human truncated PAK2 expressed in Escherichia coli cell assessed as substrate phosphorylation using fluorescence-labelled peptides as substrate at 0.1 uM after 90 mins by microfluidic peptide phosphorylation assay

[5] = biological target: Glycogen synthase kinase-3 beta (Homo sapiens) (UniProt P49841); details: 0.1 uM
Sequence of Glycogen synthase kinase-3 beta (Homo sapiens) (P49841 whole entry, looked up): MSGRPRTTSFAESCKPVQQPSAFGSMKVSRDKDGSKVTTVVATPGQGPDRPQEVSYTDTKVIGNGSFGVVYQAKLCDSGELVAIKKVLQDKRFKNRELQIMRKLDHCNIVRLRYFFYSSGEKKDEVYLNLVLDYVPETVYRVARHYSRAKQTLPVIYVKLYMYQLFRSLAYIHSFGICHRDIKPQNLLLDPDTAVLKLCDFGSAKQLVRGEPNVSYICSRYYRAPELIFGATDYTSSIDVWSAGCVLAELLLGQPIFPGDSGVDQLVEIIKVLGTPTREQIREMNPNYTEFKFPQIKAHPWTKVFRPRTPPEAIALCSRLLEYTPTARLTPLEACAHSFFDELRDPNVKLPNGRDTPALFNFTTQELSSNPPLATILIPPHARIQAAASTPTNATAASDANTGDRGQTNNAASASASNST
Description: Inhibition of human full length GSK-3 beta expressed in baculovirus assessed as substrate phosphorylation using fluorescence-labelled peptides as substrate at 0.1 uM after 90 mins by microfluidic peptide phosphorylation assay

[6] = biological target: Mitogen-activated protein kinase 1 (Homo sapiens) (UniProt P28482); details: 0.1 uM
Sequence of Mitogen-activated protein kinase 1 (Homo sapiens) (P28482 whole entry, the tested form may be a part): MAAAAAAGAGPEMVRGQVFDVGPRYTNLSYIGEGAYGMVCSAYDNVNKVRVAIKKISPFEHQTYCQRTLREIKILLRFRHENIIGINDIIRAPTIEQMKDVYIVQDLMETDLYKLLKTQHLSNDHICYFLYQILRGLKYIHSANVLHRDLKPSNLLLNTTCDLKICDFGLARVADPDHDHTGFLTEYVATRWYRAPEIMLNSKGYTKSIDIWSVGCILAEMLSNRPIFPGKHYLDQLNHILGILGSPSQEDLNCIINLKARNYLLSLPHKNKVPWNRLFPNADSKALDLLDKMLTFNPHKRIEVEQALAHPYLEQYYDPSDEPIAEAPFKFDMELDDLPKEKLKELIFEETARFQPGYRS
Description: Inhibition of human full length ERK2 expressed in Escherichia coli cell assessed as substrate phosphorylation using fluorescence-labelled peptides as substrate at 0.1 uM after 90 mins by microfluidic peptide phosphorylation assay

[7] = biological target: Mitogen-activated protein kinase 14 (Homo sapiens) (UniProt Q16539); assay: Inhibition of human truncated p38 alpha expressed in Escherichia coli cell assessed as substrate phosphorylation using fluorescence-labelled peptides as substrate at 9 uM after 90 mins by microfluidic peptide phosphorylation assay
Sequence of Mitogen-activated protein kinase 14 (Homo sapiens) (Q16539 whole entry, the tested form may be a part): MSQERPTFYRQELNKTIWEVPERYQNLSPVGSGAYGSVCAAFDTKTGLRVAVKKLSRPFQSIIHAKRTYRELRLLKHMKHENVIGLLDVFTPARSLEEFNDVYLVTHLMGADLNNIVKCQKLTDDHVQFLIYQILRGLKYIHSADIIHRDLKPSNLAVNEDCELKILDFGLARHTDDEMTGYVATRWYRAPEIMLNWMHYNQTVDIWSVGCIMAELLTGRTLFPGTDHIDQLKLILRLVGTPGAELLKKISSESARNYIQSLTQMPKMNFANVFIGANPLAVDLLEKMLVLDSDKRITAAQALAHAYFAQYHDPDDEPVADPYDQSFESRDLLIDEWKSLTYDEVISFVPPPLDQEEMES

[8] = biological target: Cyclin-dependent kinase 2 (Homo sapiens) (UniProt P24941); assay: Inhibition of human full length CDK2 expressed in baculovirus assessed as substrate phosphorylation using fluorescence-labelled peptides as substrate at 9 uM after 90 mins by microfluidic peptide phosphorylation assay
[9] = biological target: Casein kinase I isoform alpha (Homo sapiens) (UniProt P48729); assay: Inhibition of human full length CSNK1A1 expressed in baculovirus assessed as substrate phosphorylation using fluorescence-labelled peptides as substrate at 9 uM after 90 mins by microfluidic peptide phosphorylation assay
Sequence of Casein kinase I isoform alpha (Homo sapiens) (P48729 2-337 limits assumed): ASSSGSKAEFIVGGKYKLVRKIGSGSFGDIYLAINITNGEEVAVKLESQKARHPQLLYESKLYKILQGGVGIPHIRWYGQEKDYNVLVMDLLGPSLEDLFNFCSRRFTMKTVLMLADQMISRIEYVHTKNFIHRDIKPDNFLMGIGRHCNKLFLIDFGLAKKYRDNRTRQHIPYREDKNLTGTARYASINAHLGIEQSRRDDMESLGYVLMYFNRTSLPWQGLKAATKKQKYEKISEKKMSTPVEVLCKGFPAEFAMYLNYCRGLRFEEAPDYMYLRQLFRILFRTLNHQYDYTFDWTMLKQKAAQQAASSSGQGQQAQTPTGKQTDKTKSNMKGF

[10] = biological target: T1, Serine/threonine-protein kinase Sgk3 (Homo sapiens); assay: Inhibition of human full length SGK3 expressed in baculovirus assessed as substrate phosphorylation using fluorescence-labelled peptides as substrate at 70 uM after 90 mins by microfluidic peptide phosphorylation assay
[11] = biological target: Serine/threonine-protein kinase PAK 2 (Homo sapiens) (UniProt Q13177); assay: Inhibition of human truncated PAK2 expressed in Escherichia coli cell assessed as substrate phosphorylation using fluorescence-labelled peptides as substrate at 70 uM after 90 mins by microfluidic peptide phosphorylation assay
[12] = biological target: Aurora kinase B (Homo sapiens) (UniProt Q96GD4); assay: Inhibition of human full length AurB expressed in baculovirus assessed as substrate phosphorylation using fluorescence-labelled peptides as substrate at 95 uM after 90 mins by microfluidic peptide phosphorylation assay
Sequence of Aurora kinase B (Homo sapiens) (Q96GD4 whole entry): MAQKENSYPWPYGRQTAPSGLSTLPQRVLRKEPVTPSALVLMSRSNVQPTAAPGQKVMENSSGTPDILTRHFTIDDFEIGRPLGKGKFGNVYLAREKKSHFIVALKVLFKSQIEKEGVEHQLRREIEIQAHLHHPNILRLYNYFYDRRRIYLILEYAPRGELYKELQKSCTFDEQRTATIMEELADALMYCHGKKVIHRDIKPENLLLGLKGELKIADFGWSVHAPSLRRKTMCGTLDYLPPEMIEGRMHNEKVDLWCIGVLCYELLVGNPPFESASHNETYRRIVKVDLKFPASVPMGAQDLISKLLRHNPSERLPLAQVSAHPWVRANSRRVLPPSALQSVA

[13] = biological target: Serine/threonine-protein kinase MARK2 (Homo sapiens) (UniProt Q7KZI7); assay: Inhibition of human full length MARK2 expressed in baculovirus assessed as substrate phosphorylation using fluorescence-labelled peptides as substrate at 1000 uM after 90 mins by microfluidic peptide phosphorylation assay
Sequence of Serine/threonine-protein kinase MARK2 (Homo sapiens) (Q7KZI7 whole entry): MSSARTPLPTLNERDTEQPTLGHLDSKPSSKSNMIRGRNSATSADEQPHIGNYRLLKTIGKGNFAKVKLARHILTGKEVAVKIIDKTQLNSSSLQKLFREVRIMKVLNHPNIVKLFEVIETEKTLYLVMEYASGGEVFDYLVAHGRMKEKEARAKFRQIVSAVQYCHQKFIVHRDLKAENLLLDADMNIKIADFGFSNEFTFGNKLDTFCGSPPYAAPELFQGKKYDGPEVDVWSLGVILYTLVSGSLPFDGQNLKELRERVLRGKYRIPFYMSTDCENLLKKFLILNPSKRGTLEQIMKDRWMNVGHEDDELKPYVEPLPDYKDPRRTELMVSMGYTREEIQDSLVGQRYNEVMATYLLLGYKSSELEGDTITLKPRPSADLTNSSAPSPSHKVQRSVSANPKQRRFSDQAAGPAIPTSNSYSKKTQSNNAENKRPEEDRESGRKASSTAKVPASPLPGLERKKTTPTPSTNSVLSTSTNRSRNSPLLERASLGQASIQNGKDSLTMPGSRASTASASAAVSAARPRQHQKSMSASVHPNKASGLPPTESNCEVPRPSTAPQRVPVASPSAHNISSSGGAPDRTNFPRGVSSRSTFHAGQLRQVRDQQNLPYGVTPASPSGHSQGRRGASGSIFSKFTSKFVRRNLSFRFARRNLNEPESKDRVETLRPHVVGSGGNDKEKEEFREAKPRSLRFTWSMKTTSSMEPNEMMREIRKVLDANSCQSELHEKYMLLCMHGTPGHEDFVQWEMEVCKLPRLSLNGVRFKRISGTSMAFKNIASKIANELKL

[14] = biological target: T2, cGMP-dependent protein kinase 1 (Homo sapiens) (UniProt Q13976); assay: Inhibition of human full length PKG-1a expressed in baculovirus assessed as substrate phosphorylation using fluorescence-labelled peptides as substrate at 1000 uM after 90 mins by microfluidic peptide phosphorylation assay
T2 sequence (whole entry): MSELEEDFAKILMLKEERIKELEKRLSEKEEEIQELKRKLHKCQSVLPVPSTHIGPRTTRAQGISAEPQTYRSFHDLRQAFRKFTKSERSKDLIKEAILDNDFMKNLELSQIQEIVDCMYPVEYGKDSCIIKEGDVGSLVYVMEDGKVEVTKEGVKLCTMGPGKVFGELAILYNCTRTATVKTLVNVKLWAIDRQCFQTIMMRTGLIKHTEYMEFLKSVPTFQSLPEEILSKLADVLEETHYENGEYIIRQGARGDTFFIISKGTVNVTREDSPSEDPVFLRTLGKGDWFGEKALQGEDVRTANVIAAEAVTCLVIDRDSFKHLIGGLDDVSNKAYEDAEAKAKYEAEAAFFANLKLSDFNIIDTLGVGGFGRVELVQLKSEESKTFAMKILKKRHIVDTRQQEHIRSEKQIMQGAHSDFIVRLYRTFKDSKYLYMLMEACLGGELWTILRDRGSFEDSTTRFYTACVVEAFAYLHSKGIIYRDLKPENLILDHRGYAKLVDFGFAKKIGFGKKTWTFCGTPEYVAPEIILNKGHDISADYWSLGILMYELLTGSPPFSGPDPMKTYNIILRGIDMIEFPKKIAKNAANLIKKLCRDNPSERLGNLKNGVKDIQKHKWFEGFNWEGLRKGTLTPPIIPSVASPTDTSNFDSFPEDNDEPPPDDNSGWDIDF

[15] = biological target: T2, cGMP-dependent protein kinase 1 (Homo sapiens); assay: Inhibition of human full length PKG-1a expressed in baculovirus assessed as substrate phosphorylation using fluorescence-labelled peptides as substrate at 2 uM after 90 mins by microfluidic peptide phosphorylation assay
[16] = biological target: T3, Serine/threonine-protein kinase Sgk2 (Homo sapiens) (UniProt Q9HBY8); assay: Inhibition of human full length SGK2 expressed in baculovirus assessed as substrate phosphorylation using fluorescence-labelled peptides as substrate at 2 uM after 90 mins by microfluidic peptide phosphorylation assay
T3 sequence (whole entry): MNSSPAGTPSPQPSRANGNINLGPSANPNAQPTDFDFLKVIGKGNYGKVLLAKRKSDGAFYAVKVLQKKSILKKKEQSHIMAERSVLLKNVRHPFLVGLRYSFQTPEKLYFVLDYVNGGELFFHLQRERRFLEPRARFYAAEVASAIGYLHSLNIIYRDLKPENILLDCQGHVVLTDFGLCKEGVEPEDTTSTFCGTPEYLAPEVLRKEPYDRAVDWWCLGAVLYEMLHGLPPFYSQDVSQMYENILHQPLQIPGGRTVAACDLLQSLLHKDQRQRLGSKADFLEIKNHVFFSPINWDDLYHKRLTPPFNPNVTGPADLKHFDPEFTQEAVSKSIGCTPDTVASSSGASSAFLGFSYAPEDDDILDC

NC1(Cc2ccc(Cl)cc2)CCN(c2ncnc3[nH]ccc23)CC1
inhibition [1]: 0%

COC(=O)c1cnc(Nc2cnc(C#N)cn2)cc1NCC1CCNCC1
inhibition [2]: 5%
inhibition [3]: 7.5%

C[C@H](CN(C)C)Oc1nc(Nc2cc3cccc(Cl)c3cn2)cnc1C#N
inhibition [4]: 0%
inhibition [5]: 0%
inhibition [6]: 0%

NCC1CN(c2ncnc3[nH]c4cnccc4c23)CCO1 (stereo unspecified)
inhibition [7]: 2.5%
inhibition [8]: 26.5%
inhibition [9]: 13%

CNCc1ccc(-c2ncnc3[nH]cnc23)cc1
inhibition [10]: 58%
inhibition [11]: 26%

NCCc1ccc(-c2ncnc3[nH]cnc23)cc1
inhibition [12]: 97%

c1cnc2[nH]ccc2c1
inhibition [13]: 75%
inhibition [14]: 90.5%

NC1CCN(c2ncnc3[nH]ccc23)CC1
inhibition [15]: 10%
inhibition [16]: 46.5%
